Where a SMILES comes first, the peptide text is derived from it. Bridges are numbered along the chain shown (N, C = ends).
Assays:
healthy men [1] = assay: Plasma insulin, C-peptide and C-peptide/glucose ratio during LEAP2 infusion, crossover study; assay type: in vivo, human; conditions: mean ± SEM
Excerpt: The infusion was terminated when participants had finished eating.
For analysis of plasma glucose, blood was distributed in fluoride heparin-coated tubes, centrifuged immediately for 30 s (12,100 g, room temperature) and measured bedside by the glucose oxidase method (YSI 2900 Biochemistry Analyzer; YSI Incorporated, Yellow Springs, Ohio, USA). For analysis of LEAP2, blood was collected in chilled K3EDTA tubes each containing 250 KIU of aprotinin. For analysis of acyl ghrelin, blood was collected in chilled K2EDTA tubes added 20 μL pefabloc (100 mg/mL; Merck Millipore, Burlington, Massachusetts, USA). Subsequently, pefabloc-treated plasma was acidified with HCl (12.5 μL 2M HCl per 500 μL plasma; Merck Millipore, Burlington, Massachusetts, USA). For analysis of glucagon, blood was collected in K2EDTA tubes. For analysis of GH, insulin, C-peptide, free fatty acids, glycerol, triglycerides and acetaminophen (paracetamol), blood was collected in tubes with lithium and heparin. All tubes were immediately cooled on ice, centrifuged for 15 min (2,000 g, 4°C) and stored at −80°C until analysis. LEAP2 concentrations were determined by an in-house radioimmunoassay directed against the N-terminal part of LEAP2. LEAP-2 was used for standards, and the tracer was a peptide composed of the 12 N-terminal amino acids of LEAP2, with a ^125I-labelled tyrosine added to the C-terminal end. The precision and accuracy of the assay were evaluated based on European Medicines Agency's guidelines for bioanalytical assay validation. […] Due to supply chain disruptions from the COVID-19 pandemic, acyl ghrelin was only measured in plasma samples at timepoints 0, 60, 105, 165 and 255 min. […] Plasma GH was measured by Immunodiagnostic system-iSYS assay (IS-3700; IDS Limited, Boldon, UK). The assay is based on chemiluminesence technology and was performed according to the manufacturer’|'s instructions. […] For analysis of glucagon, plasma was extracted in a final concentration of 70% ethanol. Glucagon was measured using a C-terminal directed antiserum (code number 4305) measuring glucagon of pancreatic origin as previously described.[40] […] Plasma insulin and C-peptide were measured using a two-sided electrochemiluminescence immunoassay (Atellica IM Analyzer; Siemens Healthcare, Ballerup, Denmark). Plasma triglycerides and acetaminophen were analyzed by spectrophotometric methods following enzymatic hydrolysis and oxidation (Siemens Atellica CH 930; Siemens Healthcare, Ballerup, Denmark). Plasma concentrations of free fatty acids and glycerol were determined by enzymatic methods modified to run on a COBAS 6000 automatic analyzer (Roche, Rødovre, Denmark) using a NEFA-HR assay (Wako Chemicals, Neuss, Germany) and glycerol assay (Randox Laboratories, Crumlin, UK), respectively.
Unless otherwise stated, results are presented as mean ± SEM. Baseline values were calculated as a mean of timepoints −35, −10 and 0 min or, when only available −10 and 0 min. Baseline values for the postprandial period were calculated as a mean of timepoint 60 min. Calculations of AUC were based on the trapezoidal rule. AUC values are reported for the period 0 to 255 min. To assess the fasting and postprandial periods separately, AUC values are reported for the periods 0 to 60 min and 60 to 255 min, respectively. Student’s paired t test was used to test for differences in baseline, peak, time to peak, AUC and mean values and ad libitum food intake in men.

healthy men [2] = assay: Indirect calorimetry and renal urea excretion; assay type: in vivo, human; conditions: iv LEAP2 ~25 pmol/kg/min
Protocol: Resting energy expenditure and respiratory quotient were measured by indirect calorimetry (Vyntus CPX Canopy; Vyaire Medical, Höchberg, Germany) for 15 min at timepoints −25 (baseline), 45, 120 and 240 min, with the participants awake and in a supine position from 5 min prior to each test. Participants rested in a hospital bed for 30 min before the first test and throughout the experimental day. The gas and flow analyzers were calibrated before each test. The first 5 min and the last minute of data collection were subsequently discarded, and the mean of a 5-min steady state period defined as a coefficient of variation <10% for VO2 and CO2 was used to estimate resting energy expenditure and respiratory quotient for each test. The 5-min steady state period with the lowest resting energy expenditure and with a respiratory quotient between 0.7 and 1.0 was considered. In a few cases without a 5-min steady state period, a 4-min steady state period was considered.[35]^,[36] In the present study, a steady state period of 5 min was successfully reached in […] out of 160 tests. One participant was excluded from the subsequent data analysis due to no steady state period in any of the four tests during an experimental day. A 4-min steady state period was considered in six cases reaching a total of 23 excluded tests from the data analysis.
To assess the amount of protein breakdown after the liquid mixed meal, urine samples were collected at timepoints 135 and 255 min for measurement of renal urea excretion and total urine production. At timepoint 60 min, 5 min prior to ingestion of the liquid mixed meal, participants were asked to empty their urinary bladder.

wild-type mice = assay: Plasma glucose and food intake after subcutaneous LEAP2 in wild-type mice; assay type: in vivo, mouse
Protocol: Food intake and blood glucose measurements were measured in female GHSR-null mice (n = 8) and wild-type littermates (n = 10) (14–24 weeks of age). Mice were double-housed with matching genotype and age. All mice were fasted for four hours and randomized by mean body weight per cage and allocated into either vehicle (saline) or LEAP2 administration on the first day of the study. LEAP2 or vehicle was administered subcutaneously just before start of dark phase (6 PM). By start of dark phase, mice had ad libitum access to water and a normal chow diet. Cumulative food intake was measured one, two and four hours after administration and calculated as the average food intake per cage per g body weight of each mouse, respectively. Blood glucose was measured in blood from a tail puncture at baseline and one, two and four hours after administration by use of a glucometer (Contour ™xt meter; Ascensia Diabetes Care, Basel, Switzerland). One week later, mice underwent the same procedure, but with the opposite treatment. The concentration of the LEAP2 dose was 3 μmol/kg.

[3] = healthy men n = 20, LEAP2 day, before infusion
[4] = healthy men n = 20, iv LEAP2 ~25 pmol/kg/min, 0 to 255 min
[5] = healthy men n = 20, iv LEAP2 ~25 pmol/kg/min, fasting period
[6] = healthy men n = 20, iv LEAP2 ~25 pmol/kg/min, liquid mixed meal at 65 min
[7] = healthy men n = 20, iv LEAP2 ~25 pmol/kg/min, postprandial period
[8] = healthy men n = 20, iv LEAP2 ~25 pmol/kg/min, time = 60 min

Q: How did the “C-peptide Baseline” value (healthy men [1]; [3]) turn out when `CC[C@H](C)[C@@H]1NC(=O)[C@@H]2CSSC[C@@H](C(=O)N[C@@H](CO)C(=O)N[C@@H](CC(C)C)C(=O)N[C@@H](CO)C(=O)N[C@H](C(=O)N[C@@H](C)C(=O)N[C@@H](CCC(N)=O)C(=O)N[C@@H](CCC(=O)O)C(=O)O)C(C)C)NC(=O)[C@H](CCCNC(=N)N)NC(=O)[C@H](CCCNC(=N)N)NC(=O)[C@H](CCCCN)NC(=O)[C@H](CCCNC(=N)N)NC(=O)[C@H](CSSC[C@H](NC(=O)[C@H](CO)NC(=O)[C@H](C)NC(=O)CNC(=O)[C@@H](NC(=O)[C@@H]3CCCN3C(=O)[C@H](CCCNC(=N)N)NC(=O)[C@H](CC(C)C)NC(=O)[C@H](CO)NC(=O)[C@@H](NC(=O)CNC(=O)[C@H](CCCNC(=N)N)NC(=O)[C@H](Cc3c[nH]c4ccccc34)NC(=O)[C@H](Cc3ccccc3)NC(=O)[C@@H]3CCCN3C(=O)[C@@H](NC(=O)[C@@H](N)CCSC)[C@@H](C)O)C(C)C)[C@@H](C)CC)C(=O)N[C@@H](CCCNC(=N)N)C(=O)N[C@@H](CC(=O)O)C(=O)N[C@@H](CC(=O)O)C(=O)N[C@@H](CO)C(=O)N[C@@H](CCC(=O)O)C(=O)N2)NC(=O)[C@H](CC(C)C)NC(=O)[C@H](CCCNC(=N)N)NC(=O)[C@H]([C@@H](C)O)NC1=O` [LEAP2, liver-expressed antimicrobial peptide 2] (H-MTPFWRGVSLRPIGASCRDDSECITRLCRKRRCSLSVAQE-OH; disulfide 17-28, 23-33 (inferred); N-terminus and C-terminus assumed) was run?
A: 360 ± 21.4 pmol/L

Q: What about the “Insulin Baseline” value (healthy men [1]; [3]) of the same compound?
A: 36.4 ± 1.70 pmol/L

Q: And the “C-peptide AUC” value (healthy men [1]; [4])?
A: 218 ± 11.7 nmol·min/L

Q: And the “Insulin AUC” value (healthy men [1]; [4])?
A: 33.8 ± 2.63 nmol·min/L

Q: What about the “C-peptide AUC0–60 min” value (healthy men [1]; [5]) of the same compound?
A: 22.5 ± 1.18 nmol·min/L

Q: And the “Insulin AUC0–60 min” value (healthy men [1]; [5])?
A: 2.39 ± 0.09 nmol·min/L

Q: And the “C-peptide Peak” value (healthy men [1]; [6])?
A: 1,524 ± 106 pmol/L

Q: And the “C-peptide Time to peak” value (healthy men [1]; [6])?
A: 136 ± 9.01 min

Q: What about the “Insulin Peak” value (healthy men [1]; [6]) of the same compound?
A: 347 ± 38.6 pmol/L

Q: And the “Insulin Time to peak” value (healthy men [1]; [6])?
A: 110 ± 6.28 min

Q: What about the “C-peptide AUC60–255 min” value (healthy men [1]; [7]) of the same compound?
A: 196 ± 11.2 nmol·min/L

Q: What about the “Insulin AUC60–255 min” value (healthy men [1]; [7]) of the same compound?
A: 31.5 ± 2.60 nmol·min/L

Q: And the “C-peptide Postprandial baseline” value (healthy men [1]; [8])?
A: 365 ± 20.2 pmol/L

Q: What about the “Insulin Postprandial baseline” value (healthy men [1]; [8]) of the same compound?
A: 38.6 ± 2.09 pmol/L

Q: And the “resting energy expenditure, LEAP2 vs placebo” value (healthy men [2]; indirect calorimetry)?
A: no differences

Q: And the “respiratory quotient, LEAP2 vs placebo” value (healthy men [2]; indirect calorimetry, data not shown)?
A: no differences

Q: What about the “renal urea excretion, LEAP2 vs placebo” value (healthy men [2]; two consecutive time points (135 and 255 min) or total, data not shown) of the same compound?
A: no difference

Q: And the “plasma glucose during ad libitum food intake 1 h after dosing vs vehicle” value (wild-type mice; female wild-type mice n = 10, LEAP2 3 μmol/kg single subcutaneous dose, after 4 h fast)?
A: significantly diminished increases in plasma glucose

Q: And the “glucose-lowering effect at later time points (2 and 4 h)” value (wild-type mice; female wild-type mice n = 10, LEAP2 3 μmol/kg subcutaneous)?
A: not at the later time points

Q: What about the “cumulative food intake 2 and 4 h after dosing vs vehicle” value (wild-type mice; female wild-type mice n = 10, LEAP2 3 μmol/kg subcutaneous, chow ad libitum from start of dark phase) of the same compound?
A: lowered the cumulative food intake

From article PMC9043997, “LEAP2 reduces postprandial glucose excursions and ad libitum food intake in healthy men” (Cell Reports Medicine, 2022)
